This is an account of results in patent EP0425443A1, “Injectable antiparasitic agent” (CIBA-GEIGY AG, priority 1989, dated 1991).

This series is described as follows: Solubility of the active substance in organic solvents. The format is physicochemical. Conditions: dmso and n-methylpyrrolidone, organic solvent or mixture; in Dimethylsulfoxid und N-Methylpyrrolidon; Gewicht-pro-Volumen-Prozent; read-out: Solubility (lösen). An excerpt: Injizierbare Zubereitungen stellen wegen der sehr genauen Dosierbarkeit auch kleiner Wirkstoffmengen, der leichten Anwendbarkeit und der geringfügigen Beunruhigung der zu behandelnden Tiere, insbesondere grösserer Nutztiere, wie beispielsweise Rinder, Schafe, Pferde und Esel, oftmals die günstigste Applikationsart dar. Bei der Verwendung von schwerlöslichen Substanzen wie insbesondere den Benzoylphenylharnstoffen in Form injizierbarer Formulierungen ergeben sich jedoch Probleme, wenn mit ihnen ein wirksamer Plasmaspiegel, d.h., eine gleichmässige Verteilung einer ausreichenden Wirkstoffmenge im Plasma, erreicht werden soll, weil das injizierte Material von der Gewebsflüssigkeit beeinflusst wird und damit beispielsweise die physikalisch-chemischen Eigenschaften besagten Materials so verändert werden können, dass ein erheblicher Anteil des injizierten Materials sehr rasch kristallisiert und dadurch an der Injektionsstelle oder in sehr naher Umgebung davon verbleibt. So lassen sich Benzoylharnstoffe, beispielsweise N-[3-(3-Chlor-5-trifluormethylpyridyl-2-oxy)-4-chlorphenyl]-N'-[2,6-difluorbenzoyl]-hamstoff, in Dimethylsulfoxid und N-Methylpyrrolidon (etwa 35 %, Prozentangaben bedeuten hier und im folgenden Gewichtpro-Volumen-Prozent) lösen. […]

As a reminder, the solubility is the concentration that dissolves in the medium under given conditions.

Structures are written as SMILES. In brackets after ≈: the same amount, converted by molar mass.

For the molecule `O=C(NC(=O)c1c(F)cccc1F)Nc1ccc(Cl)c(Oc2ncc(C(F)(F)F)cc2Cl)c1` [N-[3-(3-Chlor-5-trifluormethylpyridyl-2-oxy)-4-chlorphenyl]-N'-[2,6-difluorbenzoyl]-harnstoff], the solubility is about 350 mg/mL (≈ 691 mM).
